Where two headings read alike, the source gives them in different places.
How the values were obtained:
[1] = tested on: rat with DIC and MOF induced by endotoxin; experiment: Endotoxin-induced DIC and multiple organ failure in rat; type: in vivo; conditions: for serum level of FDP compared with R-configuration: 10 mg/kg, FIG. 4
Description: Rats (Crj:CD(SD); 250±20 g) were used to test sample. Before the compound was administered, the rat was not fed. The compound was orally administered one time per day for two days in an amount of 10 mg˜25 mg/10 ml/kg/day. Distilled water (control group and LPS group) or enantiomer was administered to the rat repeatedly. After one hour, rat was anaesthetized with intramuscular injection of 50 mg/kg of pentobarbital. […] Thereafter, 50 mg/kg of pentobarbital was injected at 2 hour to the rat by intramuscular injection. Therefore, the rat was anaesthetized for all the experiment and operation.
The blood (2 ml for FDP and 6 ml for other variables) was collected from abdominal artery using a plastic syringe, into glass tube containing soy bean trypsin inhibitor and Bothrops atrox venom to measure FDP and into plastic tube containing 2.2% sodium citrate (1/10, volume/volume). The aggregated blood was centrifuged at 1200×g for 5 minutes two times. Before measurement of FDP, the supernatant was stored at freezer for at least 12 hours. Citrated blood was centrifuged at 2000×g for 30 minutes. The supernatant was used for measurement of fibrinogen and PT or APTT time. The aggregated blood collected in glass tube was disposed at the room temperature for 30 min, centrifuged to give the serum for measurement of AST and BUN.
Platelet from total citrated blood was counted by using automatic platelet counter (PLT-4, Texas International Lab.) PT or APTT time was measured by Beckton Dickenson BBL Fibrosystem (Coctkeysville, USA). FDP analysis was accomplished by using Thrombo-wellcotest kit. The said analysis was accomplished by up and down dilution method semi-quantitatively. Measurement of AST and BUN was accomplished by using Autobiochemical analyzer (Hitach 747, Japan).

right auricle muscle = experiment: Heart rates (beats) of right auricle muscle excised from rats; design: species or system rat; conditions: for Heart Rates of Auricle Muscles: vehicle control:100%
Description: (§1) Immediately after Sprague-Dawley rats (female or male) were anaesthetized with pentobarbital sodium (50 mg/kg, i.m.), the thorax was opened to excise the heart. The heart was submerged in Krebs solution, and left auricle muscle and right auricle muscle were then isolated. The left auricle muscle was placed in an organ bath for recording of contractile force, and applied with electrical field stimulation (voltage 10% higher than threshold voltage, 1 Hz frequency, 5 ms duration). In the case of right auricle muscle, which contracts spontaneously, the number of continuous beats was recorded. In this experiment, to measure contractile fore of the two auricle muscles, the organ bath was warmed to 37° C., and as a physiological solution, Krebs solution (119.8 mM NaCl, 4.6 mM KCl, 2.5 mM CaCl2, 1.2 mM MgCl2, 25 mM NaHCO3, 1.2 mM KH2PO4, 10 mM glucose, 1 mM EDTA, pH 7.4) was used. The Krebs solution (pH 7.4) was continuously saturated with a gas mixture of 95% O2 and 5% CO2. The auricle muscle was under a tension of 1 g, and Krebs solution was exchanged with fresh solution at intervals of 20 minutes while equilibrium was maintained during a recording period of 60 minutes.

[2] = tested on: RAW 264.7 macrophage cells; experiment: Nitric oxide production in macrophage cell stimulated by LPS (Griess); type: cell-based; conditions: for NO production by LPS in macrophage cell: LPS 1 μg/ml; for inhibition of production of NO: LPS-stimulated macrophage cell
Description: RAW 264.7 macrophage cells were plated on 100 mm culture dishes at a density of 1-2×10^5 cells. Thereafter, the said macrophage cell was incubated in DMEM medium containing 10% fetal calf serum (heat-inactivated), 100 U/ml penicillin, and […] streptomycin in a CO2 incubator. The said macrophage cell was incubated therein confluently. The said incubated macrophage cells were transferred to serum-free DMEM medium, and further incubated therein for about 24 hours. Thereafter, macrophage cells were stimulated with LPS (1 μg/ml) for about 8 hours. (In this progress, experimental group was divided into two groups, group to which the compound was administered, and group to which the compound was not.) Then, nitrite quantification was achieved by performing calorimetric reaction for produced nitrite with Griess reagent and then measuring absorbance at 550 nm, while using NaNO2 as a standard.

rat PRP = experiment: Inhibition of platelet aggregation in rat PRP; type: cell-based; conditions: for IC50: Platelet, rat PRP; for inhibitory effect on epinephrine-induced platelet aggregation, times as strong as R-enantiomer: S versus R; for inhibitory effect on epinephrine-induced platelet aggregation, times as strong as racemic mixture: S versus racemic mixture; for inhibition of platelet aggregation induced by ADP: even at the concentration as high as 1×10^−3 M
Description: Male rat (weighing 200±20 g) was anaesthetized with ether. The blood (nine volumes) was collected from heart using a plastic syringe containing 2.2% sodium citrate (one volume). The collected blood was centrifuged at 200×g for 10 minutes to give supernatant platelet-rich plasma (PRP). The residue was centrifuged again at 700×g for 30 minutes, giving platelet-poor plasma (PPP) for experiment. We used a platelet analyzer to count the number of platelet of the PRP. PRP was diluted with physiological saline solution to prepare solution containing platelets in an amount of 400-450×10^6/ml. The inhibitory effects of the compound represented by formulas 3 to 8 was evaluated by platelet aggregation analyzer, and the inhibitory effect of each compound is given as % below. That is, after PRP was incubated for 3 minutes at 37° C., the compounds or a carrier was added thereto, and after 1 min, platelet aggregation-inducing agent such as ADP, collagen, arachidonic acid (AA), U46619 or epinephrine was added thereto, followed by investigation of turbidity caused by aggregation of platelets. % Inhibition=A−B/A×100 [arithmetic formula 1] • (A: Platelet aggregation rate in group treated with an aggregation-inducing agent; • B: Platelet aggregation rate in group treated with both an aggregation-inducing agent and the enantiomers simultaneously)

[3] = Acute toxicity in rat (LD50); type: in vivo; conditions: Sprague-Dawley, in vivo
Description: Sprague-Dawley rats (six weeks) were used as test sample. Each group was comprised of two rats. […] The said emulsion was administered to two rats one times using intravenous injection and intraperitoneal injection.

left auricle muscle = experiment: Contractile force of left auricle muscle excised from rats; design: species or system rat; conditions: for Contractile Force of Auricle Muscles: vehicle control:100%
Description: as §1

[4] = ADP 2 − 5 × 10^−6 M, read-out: IC50 platelet aggregation, ADP
[5] = U46619 1.5 × 10^−6 M with threshold collagen, read-out: IC50 platelet aggregation, U46619
[6] = arachidonic acid 1 − 4 × 10^−5 M with threshold collagen, read-out: IC50 platelet aggregation, AA
[7] = collagen 2 − 5 × 10^−6 g/ml, read-out: IC50 platelet aggregation, collagen
[8] = epinephrine 1 − 4 × 10^−6 M with threshold collagen, read-out: IC50 platelet aggregation, Epinephrine
[9] = ip, single intraperitoneal injection, read-out: LD50, Intraperitioneal injection
[10] = single intravenous injection, read-out: LD50, Intravenous injection

SMILES	Heart Rates of Auricle Muscles (right auricle muscle; 1 × 10^−4 M) [%]	Heart Rates of Auricle Muscles (right auricle muscle; 1 × 10^−5 M) [%]	Heart Rates of Auricle Muscles (right auricle muscle; 1 × 10^−6 M) [%]	Heart Rates of Auricle Muscles (right auricle muscle; 1 × 10^−7 M) [%]	Heart Rates of Auricle Muscles (right auricle muscle; 3 × 10^−5 M) [%]	Heart Rates of Auricle Muscles (right auricle muscle; 3 × 10^−6 M) [%]	Heart Rates of Auricle Muscles (right auricle muscle; 3 × 10^−7 M) [%]	NO production by LPS in macrophage cell ([2]; compound 10 μM) [µM]	NO production by LPS in macrophage cell ([2]; compound 50 μM) [µM]	NO production by LPS in macrophage cell ([2]; compound 100 μM) [µM]	IC50 (rat PRP; [4]) [µM]	IC50 (rat PRP; [5]) [µM]	IC50 (rat PRP; [6]) [µM]	IC50 (rat PRP; [7]) [µM]	IC50 (rat PRP; [8]) [µM]	LD50 [3, 9] [mg/kg]	LD50 [3, 10] [mg/kg]	Contractile Force of Auricle Muscles (left auricle muscle; 1 × 10^−4 M) [%]	Contractile Force of Auricle Muscles (left auricle muscle; 1 × 10^−5 M) [%]	Contractile Force of Auricle Muscles (left auricle muscle; 1 × 10^−6 M) [%]	further results
Oc1ccc(C[C@@H]2NCCc3cc(O)c(O)cc32)cc1 [Formula 3, (S)-6,7-Dihydroxy-1-(p-hydroxyphenylmethyl)-1,2,3,4-tetrahydroisoquinoline]	250	180	145	130	200	150	140	30.5	22.3	18.2	> 1000	25	9.1	450	1.6	450	154	300	300	250	serum level of FDP compared with R-configuration [1]: lower; platelet concentration compared with R-configuration ([1]; FIG. 2): higher; serum level of AST ([1]; LPS 15 mg/kg i.v. 4 hours): at the normal level; serum level of BUN, formula 3 versus formula 4 ([1]; LPS 15 mg/kg i.v. 4 hours): no difference; inhibitory effect on epinephrine-induced platelet aggregation, times as strong as R-enantiomer (rat PRP): about nine times as strong; inhibitory effect on epinephrine-induced platelet aggregation, times as strong as racemic mixture (rat PRP): about five times as strong; inhibition of platelet aggregation induced by ADP (rat PRP): did not inhibit; Contractile Force of Auricle Muscles (left auricle muscle; 1 × 10^−7 M): 140%; Contractile Force of Auricle Muscles (left auricle muscle; 3 × 10^−5 M): 300%; Contractile Force of Auricle Muscles (left auricle muscle; 3 × 10^−6 M): 290%; Contractile Force of Auricle Muscles (left auricle muscle; 3 × 10^−7 M): 180%
Oc1ccc(C[C@H]2NCCc3cc(O)c(O)cc32)cc1 [Formula 4, (R)-6,7-Dihydroxy-1-(p-hydroxyphenylmethyl)-1,2,3,4-tetrahydroisoquinoline]	140	120	110	100	130	115	100	20.1	10.3	8.2	≥ 1000	15	11	300	14	262	95	300	200	130	serum level of AST ([1]; LPS 15 mg/kg i.v. 4 hours): at the normal level; serum level of BUN, formula 3 versus formula 4 ([1]; LPS 15 mg/kg i.v. 4 hours): no difference; effect on heart rates of auricle muscles (right auricle muscle): increased; inhibition of production of NO [2]: inhibited production of NO weakly than S-enantiomer did; inhibition of platelet aggregation induced by ADP (rat PRP): did not inhibit; effect on contractile force of auricle muscles (left auricle muscle): increased; Contractile Force of Auricle Muscles (left auricle muscle; 1 × 10^−7 M): 100%; Contractile Force of Auricle Muscles (left auricle muscle; 3 × 10^−5 M): 250%; Contractile Force of Auricle Muscles (left auricle muscle; 3 × 10^−6 M): 160%; Contractile Force of Auricle Muscles (left auricle muscle; 3 × 10^−7 M): 100%
Oc1cc2c(cc1O)[C@H](Cc1cccc3ccccc13)NCC2 [Formula 5]	190	180	175	150	187	178	162.5	21.3	14.8	14.2	240	16	5.6	69	0.38	397	172	700	630	450	platelet concentration, higher than with R-configuration ([1]; 10 mg/kg oral, LPS 15 mg/kg i.v. 4 hours): 20%; serum level of FDP compared with R-configuration [1]: lower; effect on heart rates of auricle muscles (right auricle muscle): strongly stimulated; inhibition of production of NO [2]: strongly inhibited production of NO; inhibitory effect on epinephrine-induced platelet aggregation, times as strong as R-enantiomer (rat PRP): about six times as strong; inhibitory effect on epinephrine-induced platelet aggregation, times as strong as racemic mixture (rat PRP): about five times as strong; effect on contractile force of auricle muscles (left auricle muscle): strongly increased; Contractile Force of Auricle Muscles (left auricle muscle; 1 × 10^−7 M): 200%; Contractile Force of Auricle Muscles (left auricle muscle; 3 × 10^−5 M): 660%; Contractile Force of Auricle Muscles (left auricle muscle; 3 × 10^−6 M): 550%; Contractile Force of Auricle Muscles (left auricle muscle; 3 × 10^−7 M): 280%
Oc1cc2c(cc1O)[C@@H](Cc1cccc3ccccc13)NCC2 [Formula 6, (R)-6,7-Dihydroxy-1-(α-naphthylmethyl)-1,2,3,4-tetrahydroisoquinoline]	71	85	93.75	100	75	94	93.75	36	34	38	540	20	11	140	2.4	230	88	50	50	75	serum level of AST ([1]; LPS 15 mg/kg i.v. 4 hours): at the normal level; effect on heart rates of auricle muscles (right auricle muscle): no effect; inhibition of production of NO [2]: never or slightly inhibited production of NO; effect on contractile force of auricle muscles (left auricle muscle): no effect; Contractile Force of Auricle Muscles (left auricle muscle; 1 × 10^−7 M): 100%; Contractile Force of Auricle Muscles (left auricle muscle; 3 × 10^−5 M): 50%; Contractile Force of Auricle Muscles (left auricle muscle; 3 × 10^−6 M): 50%; Contractile Force of Auricle Muscles (left auricle muscle; 3 × 10^−7 M): 87%
